Assay results published in article PMC12722920, “Pharmacokinetics and pharmacodynamics of cannabigerol (CBG) in the C57BL/6Crl mouse” (Frontiers in Pharmacology, 2025).
Like-named read-outs stand apart in the source and are kept apart here.

How the values were obtained:
C57BL/6Crl mice [1] = assay: Cannabinoid tetrad: nociception by tail-flick latency; type: in vivo; details: for ED50: Mus musculus, iv
C57BL/6Crl mice [2] = assay: Cannabinoid tetrad: catalepsy in the ring holding assay; type: in vivo; details: for ED50: Mus musculus, iv
CB1R = tested on: CB1R; parameters: method as in earlier work; details: ref El-Alfy et al., 2010; Navarro et al., 2018; Zagzoog et al., 2020; cited from earlier work
[3] = parameters: method as in Deiana et al., 2012; details: ref Deiana et al., 2012, cited from earlier work
C57BL/6Crl mice [4] = assay: Open field test (OFT): locomotion and anxiety-like behaviour; type: in vivo
Protocol: Catalepsy was assessed in the ring holding assay; mice were positioned with their forepaws grasping onto a 0.5 cm thick ring clamp elevated 5 cm above the testing surface. The duration of time while the ring was held was recorded in seconds, with each trial terminated if the mouse’s forepaw released from the bar, upon turning of the head or body, or after 60 s of immobility. Catalepsy was evaluated three times consecutively, and the average time spent holding the bar was reported as a percent of the maximum possible effect (% MPE, up to 60 s). Internal body temperature was measured via a rectal thermometer. Nociception was determined by assessing tail-flick latency, where mice were restrained with their tails placed ∼1 cm into 52 °C ± 2 °C water. The time (sec) until the tail was removed was measured, with observations ending at 20 s and represented as a % MPE. Locomotion and anxiety-like behaviour were assessed in the OFT. Mice were placed in an open space (90 cm × 90 cm) and recorded for 5 min. Total distance travelled (cm), velocity (cm/sec), time in the centre quadrant (sec), and central quadrant entries were measured with EthoVision XT (Noldus Information Technology Inc., Leesburg, VA).
In Phase I (Part B), after determining the timepoint at which blood CBG concentrations were highest for each respective route of administration, the timing for each measure in the tetrad was adjusted. An assessment was conducted in a new cohort consisting of both male and female mice (n = 4 per sex per route) receiving a dose of 10 mg/kg of CBG via i.v., i.p., or p.o. routes. For those administered with i.v. CBG, the timing was: catalepsy at 5 min, body temperature at 15 min, tail-flick latency at 20 min, and OFT at 25 min post-injection. For i.p. CBG, measurements were taken at 20 min for catalepsy, 25 min for body temperature, 30 min for tail-flick latency, and 35 min for OFT post-injection. For p.o. CBG, data collection was scheduled as follows: catalepsy at 170 min, body temperature at 175 min, tail-flick latency at 180 min, and OFT at 185 min post-injection.

[5] = parameters: method as in Newmeyer et al., 2016; details: ref Newmeyer et al., 2016, cited from earlier work
[6] = 1, 3, 10 or 30 mg/kg i.v., male and female mice
[7] = accounting for blood concentrations measured at 10 min, i.v.

## CCCCCc1cc(O)c(C/C=C(\C)CCC=C(C)C)c(O)c1 [CBG, cannabigerol]
C57BL/6Crl mice [1]; 10 mg/kg i.v., 20 min post-administration, male and female mice
  anti-nociceptive response in tail-flick vs vehicle: produced an anti-nociceptive response
C57BL/6Crl mice [1]; 10 mg/kg i.v., i.p. and p.o., male mice, 20 min post-injection
  tail-flick latency: did not alter tail-flick latency
C57BL/6Crl mice [1]; [6]
  anti-nociception, dose-response: produced a modest effect but only at the highest dose tested, 30 mg/kg
C57BL/6Crl mice [1]; CBG given i.p.
  anti-nociceptive effect (tail-flick): 10% ± 0.83%
C57BL/6Crl mice [1]; 20 min, i.v., both sexes, 20 min post-administration, read-out: ED50 tail-flick latency
  ED50: > 30 mg/kg
C57BL/6Crl mice [1]; both sexes, read-out: ED50 tail-flick latency, estimate exceeding the dose range (square brackets)
  ED50: > 30 mg/kg
C57BL/6Crl mice [1]; males, read-out: ED50 tail-flick latency
  ED50: > 30 mg/kg
C57BL/6Crl mice [1]; [7]
  intoxication relative to THC, anti-nociception: 3.6%
C57BL/6Crl mice [1]; both sexes
  Intoxication ratio, tail-flick latency: 0.036
C57BL/6Crl mice [1]; females
  Intoxication ratio, tail-flick latency: 0.038
C57BL/6Crl mice [1]; i.v., females
  ED50 tail-flick latency: > 30 mg/kg
C57BL/6Crl mice [2]; 10 mg/kg i.p., 20 min post-injection, male and female mice, MPE = 60 s
  catalepsy, mean % MPE: 5.4% ± 2.5%
C57BL/6Crl mice [2]; 10 mg/kg i.v., i.p. and p.o., male mice, 5 min post-injection
  cataleptic response: did not produce a cataleptic response
C57BL/6Crl mice [2]; [6]
  catalepsy, dose-response: produced a modest effect but only at the highest dose tested, 30 mg/kg
C57BL/6Crl mice [2]; 5 min, i.v., both sexes, 5 min post-administration, read-out: ED50 catalepsy
  ED50: > 30 mg/kg
C57BL/6Crl mice [2]; both sexes, three-parameter nonlinear regression, read-out: ED50 catalepsy, estimate exceeding the dose range (square brackets)
  ED50: > 30 mg/kg
C57BL/6Crl mice [2]; males, read-out: ED50 catalepsy
  ED50: > 30 mg/kg
C57BL/6Crl mice [2]; THC potency/CBG potency corrected for blood concentration at 10 min, both sexes
  Intoxication ratio, catalepsy: 0.23
C57BL/6Crl mice [2]; [7]
  intoxication relative to THC, catalepsy: 23%
C57BL/6Crl mice [2]; females
  Intoxication ratio, catalepsy: 0.28
C57BL/6Crl mice [2]; i.v., females
  ED50 catalepsy: > 30 mg/kg
C57BL/6Crl mice [2]; males
  Intoxication ratio, catalepsy: 0.17
CB1R
  CB1R affinity relative to THC: approximately one-twentieth
[3]; i.p.
  time to peak plasma concentration (Tmax): 2 h
[3]; p.o.
  time to peak plasma concentration (Tmax): 0.5 h
C57BL/6Crl mice [4]; 10 mg/kg i.p. or p.o.
  OFT time in the center, CBG compared to THC: spent significantly more time in the center
C57BL/6Crl mice [4]; 10 mg/kg i.p., CBG 35 min post-administration
  OFT velocity: reduced velocity compared to both i.p. vehicle and THC administration
C57BL/6Crl mice [4]; 10 mg/kg i.p., compared to i.p. THC
  OFT total distance travelled: total distance travelled was reduced
C57BL/6Crl mice [4]; 10 mg/kg i.p., compared to vehicle
  OFT entries to the center: entered the center fewer times than their vehicle-treated counterparts
C57BL/6Crl mice [4]; 10 mg/kg i.v., 25 min post-administration, male and female mice
  OFT velocity: reduced velocity compared to vehicle treatment
C57BL/6Crl mice [4]; 10 mg/kg i.v., compared to i.v. vehicle
  OFT total distance travelled: total distance travelled was reduced
C57BL/6Crl mice [4]; 10 mg/kg i.v., compared to the vehicle
  OFT time in the center: Time in the center was reduced
C57BL/6Crl mice [4]; 10 mg/kg i.v., compared to vehicle
  OFT entries to the center: entered the center fewer times than their vehicle-treated counterparts
C57BL/6Crl mice [4]; 10 mg/kg p.o.
  OFT entries to the center: entered the center of the OFT more times than mice given CBG i.v.
C57BL/6Crl mice [4]; 10 mg/kg p.o., CBG 185 min post-administration
  OFT velocity: reduced velocity compared to p.o. THC
[5]; cannabis administered orally
  detection in blood after oral cannabis: not detected
[5]; frequent cannabis smokers
  time CBG was detected after smoking: up to 17 min
  time CBG was detected following vaporization: up to 13 min
